The results in this text go back to US20240254121A1, “ALKYLAMIDE SUBSTITUTED, ANNULATED IMIDAZOLES AND USE THEREOF AS INSECTICIDES” (Bayer Aktiengesellschaft, priority 2021, published 2024).

What all share (format): in vivo
Experiment [1] concerns adult flies Musca domestica strain WHO-N. Kind of experiment: Musca domestica test (MUSCDO surface treatment & contact assay). The note with it: 24 hours after contact, read-out: efficacy (mortality); for mortality at 4 mg/m2: surface concentration 4 mg/m^2, 30 minutes exposure; for mortality at 20 mg/m2: surface concentration 20 mg/m^2, 30 minutes exposure. Put shortly:
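Compound dissolved in acetone (2 mg/ml) with 2000 ppm rapeseed oil methyl ester and dried onto a glazed tile. Adult flies exposed to the treated surface for 30 min. Percent mortality scored 24 h after contact.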

Experiment [2] has as its system green peach aphid (Myzus persicae). Kind of experiment: Myzus persicae spray test. The note with it: foliar, 120 h, 100 g/ha, Chinese cabbage leaf disks, after 5 days. How it is done: Myzus persicae—Spray Test • Solvent: 78.0 parts by weight acetone • 1.5 parts by weight dimethylformamide • Emulsifier: alkylarylpolyglycol ether
(§1) To produce a suitable preparation of active compound, 1 part by weight of active compound is mixed with the stated amount of solvents and is diluted with water, containing an emulsifier concentration of 1000 ppm, to the desired concentration. Further test concentrations are prepared by dilution with emulsifier containing water.
Chinese cabbage (Brassica pekinensis) leaf disks infected with all instars of the green peach aphid (Myzus persicae), are sprayed with a preparation of the active ingredient of the desired concentration.
After 5 days mortality in % is determined. 100% means all aphids have been killed and 0% means none of the aphids have been killed.

The test system of experiment [3] is adult cat fleas (Ctenocephalides felis). As to the kind of experiment: Ctenocephalides felis in-vitro contact test, adult cat flea. The note with it: 1 μg/cm^2 (=100 g/ha), after 48 hours. Here is the method: Ctenocephalides felis—In-Vitro Contact Tests Adult Cat Flea
(§2) 9 mg compound is solved in 1 mL acetone and diluted with acetone to the desired concentration. 250 μL of the test solution is filled in 25 mL glass test tubes and homogeneously distributed on the inner walls by rotation and tilting on a shaking device (2 h at 30 rpm). With a compound concentration of 900 ppm, an inner surface of 44.7 cm^2 and a homogeneous distribution, a dose of 5 μg/cm^2 is achieved.
After the solvent has evaporated, each test tube is filled with 5-10 adult cat fleas (Ctenocephalides felis), closed with a perforated lid and incubated in a lying position at room temperature and relative humidity.
After 48 hours efficacy is determined. The fleas are patted on the ground of the tubes and are incubated on a heating plate at 45-50° C. for at most 5 minutes. Immotile or uncoordinated moving fleas, which are not able to escape the heat by climbing upwards, are marked as dead or moribund.
An efficacy of 100% means all fleas are dead or moribund; 0% means no fleas are dead or moribund.

Experiment [4] has as its system cattle tick larvae (Rhipicephalus microplus). Kind of experiment: Rhipicephalus (Boophilus) microplus in-vitro contact test, larval cattle tick (strain Parkhurst, resistant against synthetic pyrethroids). As to conditions: 1 μg/cm^2 (=100 g/ha), after 48 hours, read-out: efficacy (larvae dead or moribund). Put shortly:
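Larvae (20–50 per tube) were exposed for 48 h at 27 °C and 85% relative humidity to dried acetone residues lining glass tubes, where 900 ppm corresponds to 5 μg/cm^2. Loss of negative geotaxis defined dead or moribund larvae, expressed as percent efficacy.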

The subject of experiment [5] is larvae of the banded cucumber beetle (Diabrotica balteata). As to the kind of experiment: Diabrotica balteata spray test. The note with it: 168 h, 100 g/ha (=32 μg/well), wheat seeds, after 7 days, read-out: efficacy (seedling growth). In a few lines:
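Germinated wheat seedlings (5 per well, on agar) sprayed with compound in acetone/dimethylformamide diluted in water with 1000 ppm emulsifier, then infested with 10-20 Diabrotica balteata larvae. Efficacy (%) scored after 7 days: 100% = seedling growth as untreated, uninfested control; 0% = no seedlings grown.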

Experiment [6] relates to fall armyworm larvae (Spodoptera frugiperda). As to the kind of experiment: Spodoptera frugiperda spray test. The note with it: 168 h, maize leaf sections, after 7 days. In a few lines: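 Percent kill of Spodoptera frugiperda caterpillars read at day 7. Larvae placed on dried Zea mays leaf pieces previously sprayed with test preparation, made from acetone plus DMF and diluted with emulsifier-containing water (1000 ppm).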

In experiment [7] the test system is adult mosquitoes Culex quinquefasciatus strain P00. As to the kind of experiment: Culex quinquefasciatus test (CULXFA surface treatment & contact assay). The note with it: surface concentration 20 mg/m^2, 30 minutes exposure, 24 hours after contact, read-out: efficacy (mortality). Put shortly:
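Compound dissolved in acetone (2 mg/ml) with 2000 ppm RME and applied to glazed tile; after acetone evaporation, adults exposed to dried surface for 30 min. Percent mortality scored 24 h after contact.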

For experiment [8], the system named is adult brown dog ticks (Rhipicephalus sanguineus). As to the kind of experiment: Rhipicephalus sanguineus in-vitro contact test with adult brown dog ticks. As to conditions: 1 μg/cm^2 (=100 g/ha), after 48 hours. How it is done:
Rhipicephalus sanguineus—In-Vitro Contact Tests with Adult Brown Dog Ticks
as §2
After the solvent has evaporated, each test tube is filled with 5-10 adult brown dog ticks (Rhipicephalus sanguineus), closed with a perforated lid and incubated in a lying position at room temperature and relative humidity. After 48 hours efficacy is determined. The ticks are patted on the ground of the tubes and are incubated on a heating plate at 45-50° C. for at most 5 minutes. Immotile or uncoordinated moving ticks, which are not able to escape the heat by climbing upwards, are marked as dead or moribund.
An efficacy of 100% means all ticks are dead or moribund; 0% means no ticks are dead or moribund.

Experiment [9] has as its system brown planthopper (Nilaparvata lugens). As to the kind of experiment: Nilaparvata lugens spray test. The note with it: 96 h, rice plants, after 4 days. Here is the method:
Nilaparvata lugens—Spray Test • Solvent: 78.0 parts by weight of acetone • 1.5 parts by weight of dimethylformamide • Emulsifier: alkylarylpolyglycol ether
as §1
Rice plants (Oryza sativa) are sprayed with a preparation of the active ingredient of the desired concentration and the plants are infested with the brown planthopper (Nilaparvata lugens).
After 4 days mortality in % is determined. 100% means all planthoppers have been killed and 0% means none of the planthoppers have been killed.

For experiment [10], the system named is adult mosquitoes Aedes aegypti strain MONHEIM. As to the kind of experiment: Aedes aegypti test (AEDSAE surface treatment & contact assay). The note with it: 24 hours after contact, read-out: efficacy (mortality); for mortality at 4 mg/m2: surface concentration 4 mg/m^2, 30 minutes exposure; for mortality at 20 mg/m2: surface concentration 20 mg/m^2, 30 minutes exposure. Put shortly:
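Test compound dissolved in acetone (2 mg/ml) with 2000 ppm rapeseed oil methyl ester, applied to glazed tile and dried. Adult Aedes aegypti MONHEIM placed on surface for 30 min exposure; % mortality scored 24 h after contact.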

Experiment [11] relates to larvae of the southern green stink bug (Nezara viridula). As to the kind of experiment: Nezara viridula spray test. The note with it: 96 h, barley plants, after 4 days. In a few lines: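 Mortality (%) of stink bug larvae on treated barley (Hordeum vulgare) was scored 4 days after infestation. Test solutions came from an acetone/DMF concentrate diluted with water containing 1000 ppm emulsifier and were sprayed onto plants before larvae were added.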

For experiment [12], the system named is adult Blattella germanica strain PAULINIA
As to the kind of experiment: whole plant or invertebrate. The note with it: read-out: efficacy (mortality). Here is the method:
Blattella germanica Test (BLTTGE Surface Treatment & Contact Assay) • Solvent: Aceton+2000 ppm rapeseed oil methyl ester (RME)
In order to produce a sufficient, active ingredient containing solution it is necessary to solve the test compound in the solvent-mix (acetone at 2 mg/ml/RME 2000 ppm). This solution is pipetted onto a glazed tile and after evaporation of the acetone, adult animals of the species Blattella germanica strain PAULINIA are placed onto the dried surface. The exposure time is 30 minutes.
Mortality in percent (%) is determined 24 hours after contact of the insects to the treated surface. 100% mortality means that all tested insects are dead, whereas 0% means that no insect died.

The term mortality denotes the share of the test organisms that died.

With `C[C@H](NC(=O)c1cc(C(F)(F)F)cc(C(F)(F)F)c1)c1nc2cccnc2n1-c1ccc(C#N)cn1` [Example I-15], the mortality at 4 mg/m2 in experiment [1] and in experiment [10] was 80 to 100% in each case. Besides, the mortality at 20 mg/m2 in experiment [1], in experiment [7] and in [10] was 80 to 100% throughout. The mortality at 100 g/ha in experiment [2] worked out at 90%; in experiment [6] it was 100%. Besides, the “efficacy (fleas dead or moribund)” value in experiment [3] was found to be 80%. Besides, the pest or weed control at 1 µg/cm2, 100 g/ha in [4] came to 100%. In experiment [5], the pest or weed control at 32 µg/disc, 100 g/ha turned out to be 100%. Moreover, the “efficacy (ticks dead or moribund)” value in [8] is listed as 80%. The molecule also registered a mortality at 500 g/ha in experiment [9] of 90%.
In the case of `CC(NC(=O)c1cc(OC(F)(F)F)cc(OC(F)(F)F)c1)c1nc2cccnc2n1-c1ncccn1` (centres unmarked) [Example I-31], the mortality at 4 mg/m2 in [1] and in [10] was 80 to 100% in each case. Moreover, the mortality at 20 mg/m2 in experiment [1], in experiment [7], in experiment [12] and in experiment [10] was 80 to 100% throughout. In experiment [11], this molecule gave a mortality at 500 g/ha of 100%. Besides, the mortality at 100 g/ha stood at 90% in [2] and 100% in experiment [6]. The pest or weed control at 1 µg/cm2, 100 g/ha in experiment [4] was 100%. Also, in experiment [5], the pest or weed control at 32 µg/disc, 100 g/ha was 100%.
